The record followed here is patent US6974824B2, “Kappa opioid receptor ligands” (Research Triangle Institute, priority 2001, dated 2005).

Molecules are shown by their SMILES. Read-outs that look alike come from different tables or passages of the source.

The target in experiment [1] is delta opioid receptor (UniProt P33533). In words: Radioligand competitive binding, [3H]DADLE.
Experiment [2] concerns the target T1, delta opioid receptor (Cavia porcellus, UniProt A0A286XTF2). The settings on record: read-out: Apparent Functional Ki (nM ± SD) δ DADLE; [35S]GTP-γ-S, guinea pig caudate, SNC-80-stimulated (footnote b).
Experiment [3] has as its target mu opioid receptor (Cavia porcellus, UniProt A0ACM8Q262). In words: Inhibition of DAMGO-stimulated [35S]GTP-γ-S binding in guinea pig caudate. In kind it is biochemical. The note with it: read-out: Apparent Functional Ki (nM ± SD) μ DAMGO.
Experiment [4] addresses T2, kappa opioid receptor (Cavia porcellus, UniProt P41144). In words: Inhibition of U69,593-stimulated [35S]GTP-γ-S binding in guinea pig caudate.
Experiment [5] concerns the target mu opioid receptor (UniProt P33535). Nature of the experiment: Radioligand competitive binding, [3H]DAMGO. The note with it: read-out: K1 (nM ± SD) μ [3H]DAMGO.
Experiment [6] concerns the target cloned human kappa opioid receptor (Homo sapiens, UniProt P41145). Nature of the experiment: Inhibition of U69,593-stimulated [35S]GTP-γ-S binding in cloned human opioid receptors. The settings on record: cloned human functional assay versus binding assay.
Experiment [7] addresses T1, delta opioid receptor. Nature of the experiment: biochemical.
Experiment [8] addresses T2, kappa opioid receptor. In words: Radioligand competitive binding, [3H]U69,593. The note with it: for Ki: read-out: K1 (nM ± SD) κ [3H]U69,593, radioligand binding, [3H]U69,593.
For experiment [9], the system named is kappa opioid receptor. In words: Radioligand competitive binding, [3H]U69,593. The note with it: ratio of binding Ki values, Table 1.
Where [10] appears, read: read-out: K1 (nM ± SD) δ [3H]DADLE; radioligand binding, [3H]DADLE.
The mark [11] stands for this setting: radioligand binding, [3H]DADLE; read-out: K1 (nM ± SD) δ [3H]DADLE.

For the molecule `Oc1ccc2c3c1O[C@H]1c4[nH]c5c(c4C[C@@]4(O)[C@@H](C2)N(CC2CC2)CC[C@]314)C[C@@]1(O)[C@H]2Cc3ccc(O)c4c3[C@@]1(CCN2CC1CC1)[C@H]5O4` [6, nor-BNI, nor-binaltorphimine, reference compound], the results for the Ki in [1] (setting [10]), in experiment [2] and in experiment [3] were 86 nM, 10.2 nM and 16.7 nM, respectively.
Turning to `CC(C)[C@@H](CN1CC[C@@](C)(c2cccc(O)c2)[C@@H](C)C1)NC(=O)[C@H]1Cc2ccc(O)cc2CN1` [Compound 14, (3R)-7-Hydroxy-N-((1S)-1-{[(3R,4R)-4-(3-hydroxyphenyl)-3,4-dimethyl-1-piperidinyl]methyl}-2-methylpropyl)-1,2,3,4-tetrahydro-3-isoquinolinecarboxamide], the Ki was 301 ± 50 nM in [1] (setting [11]); 2.16 ± 0.75 nM in experiment [3]; 0.02 nM in [4]; 3.73 ± 0.17 nM in experiment [5]; greater than 300 nM in experiment [7]. Besides, in experiment [6], the “improvement in kappa receptor Ki compared with the binding assay” value was 53 fold.
Take `CC(C)[C@@H](CN1CC[C@@](C)(c2cccc(O)c2)[C@@H](C)C1)NC(=O)[C@@H]1Cc2ccc(O)cc2CN1` [Compound 15, (3S)-7-Hydroxy-N-((1S)-1-{[(3R,4R)-4-(3-hydroxyphenyl)-3,4-dimethyl-1-piperidinyl]methyl}-2-methylpropyl)-1,2,3,4-tetrahydro-3-isoquinolinecarboxamide]: the results for the Ki in [8], in [1] (setting [11]) and in [5] were 9.8 ± 1.6 nM, greater than 4900 nM and 596 ± 29 nM, respectively.
As to `CC(C)[C@@H](CN1CC[C@@](C)(c2cccc(O)c2)[C@@H](C)C1)NC(=O)[C@H]1Cc2ccccc2CN1` [Compound 16, (3R)-N-((1S)-1-{[(3R,4R)-4-(3-Hydroxyphenyl)-3,4-dimethyl-1-piperidinyl]methyl}-2-methylpropyl)-1,2,3,4-tetrahydro-3-isoquinolinecarboxamide], the figures for the Ki in experiment [8], in experiment [1] (setting [10]) and in experiment [5] were 2.1 nM, greater than 4900 nM and 775 ± 75 nM, respectively. Moreover, the δ/κ in experiment [9] is recorded as greater than 2333. In [9], the μ/κ amounted to 369.
On the same counts, the results for `CC(C)[C@@H](CN1CC[C@@](C)(c2cccc(O)c2)[C@@H](C)C1)NC(=O)[C@H]1Cc2ccc(O)cc2CN1C(=O)CN(C)C` [Compound 17, (3R)-2-(N,N-Dimethylglycyl)-7-hydroxy-N-((1S)-1-{[(3R,4R)-4-(3-hydroxyphenyl)-3,4-dimethyl-1-piperidinyl]methyl}-2-methylpropyl)-1,2,3,4-tetrahydro-3-isoquinolinecarboxamide] are 15 ± 1.2 nM, greater than 3400 nM, 164 ± 10.5 nM, greater than 219 and 11.
Turning to `CC(C)[C@@H](CN1CC[C@@](C)(c2cccc(O)c2)[C@@H](C)C1)NC(=O)[C@@H]1Cc2ccc(O)cc2CN1C` [Compound 18, (3S)-7-Hydroxy-N-((1S)-1-{[(3R,4R)-4-(3-hydroxyphenyl)-3,4-dimethyl-1-piperidinyl]methyl}-2-methylpropyl)-2-methyl-1,2,3,4-tetrahydro-3-isoquinolinecarboxamide], in [8] (opioid receptor binding data, kappa), the “potency relative to the reference compound nor-BNI (6)” value is given as 20 fold. For the same molecule, the δ/κ in experiment [9] is reported as 11622. In addition, the μ/κ in experiment [9] was determined as 700. Further, the Ki in experiment [1] (setting [10]) is 616 ± 59 nM; in experiment [5], 37 ± 1.4 nM.
As for `CC(C)[C@@H](CN1CC[C@@](C)(c2cccc(O)c2)[C@@H](C)C1)NC[C@H]1Cc2ccc(O)cc2CN1` [Compound 19, (3R)-3-{[((1S)-1-{[(3R,4R)-4-(3-Hydroxyphenyl)-3,4-dimethyl-1-piperidinyl]methyl}-2-methylpropyl)amino]methyl}-1,2,3,4-tetrahydro-7-isoquinolinol], the Ki came out at 0.63 ± 0.05 nM in experiment [8] and 5570 ± 713 nM in experiment [1] (read-out: K1 (nM ± SD) δ [3H]DADLE).
For the molecule `CC(C)[C@@H](CN1CC[C@@](C)(c2cccc(O)c2)[C@@H](C)C1)NC[C@H]1Cc2ccc(O)cc2CN1C` [Compound 20, (3R)-3-{[((1S)-1-{[(3R,4R)-4-(3-Hydroxyphenyl)-3,4-dimethyl-1-piperidinyl]methyl}-2-methylpropyl)amino]methyl}-2-methyl-1,2,3,4-tetrahydro-7-isoquinolinol], the Ki in experiment [8] came to 0.55 ± 0.04 nM; in experiment [1] (setting [11]), 2230 ± 187 nM; in [5] it was 59 ± 2.5 nM. The δ/κ in [9] was determined as 4056. Also, the μ/κ in [9] was 107.
For the molecule `CC(C)[C@@H](CN1CC[C@](C)(c2cccc(O)c2)[C@H](C)C1)NC(=O)[C@H]1Cc2ccc(O)cc2CN1` [Compound 21, (3R)-7-Hydroxy-N-((1S)-1-{[(3S,4S)-4-(3-hydroxyphenyl)-3,4-dimethyl-1-piperidinyl]methyl}-2-methylpropyl)-1,2,3,4-tetrahydro-3-isoquinolinecarboxamide], the Ki in experiment [8] turned out to be 17.5 ± 2.5 nM; in experiment [1] (setting [11]) it was 144 ± 15 nM; in [5], 138 ± 8 nM.
